Assay results taken from paper PMC9851200, “Multiparameter phenotypic screening for endogenous TFEB and TFE3 translocation identifies novel chemical series modulating lysosome function” (Autophagy, 2022).
Read-outs that look alike come from different tables or passages of the source.

Experiments:
[1] = tested on: endogenous TFEB; experiment: TFEB nuclear translocation, immunocytochemistry high-content imaging; type: cell-based; settings: PKIS2 primary screening
[2] = tested on: endogenous TFE3; experiment: TFE3 nuclear translocation, immunocytochemistry high-content imaging; type: cell-based; settings: PKIS2 primary screening
[3] = tested on: SH-SY5Y cells; further: reference of the scale not given here
[4] = tested on: SH-SY5Y cells; experiment: AK (adenylate kinase) release ToxiLight cytotoxicity assay; settings: PKIS2 primary screening; further: reference of the scale not given here
[5] = tested on: SH-SY5Y cells; experiment: Nuclear count from microscopy images (cellular growth and toxicity); settings: PKIS2 primary screening; further: reference of the scale not given here
[6] = PKIS2 primary screening, DQ Red BSA intensity
[7] = PKIS2 primary screening, DQ Red BSA spot count

SMILES	TFEB % [1] [%]	TFE3 % [2] [%]	DQ Intensity ([3]; PKIS2 primary screening)	DQ Spot ([3]; PKIS2 primary screening)	AK [4]	Nuclear Count [5]	DQ Intensity [3, 6]	DQ Spot [3, 7]	DQ Intensity [3]	DQ Spot [3]
CN1CCN(CCCNc2nccc(-c3c(-c4ccc(F)cc4)nn4cc(C(N)=O)ccc34)n2)CC1 [UNC10225188A]	6.08	19.47	87.92	111.81	105.02	94.19				
Cc1nn2c(=O)cc(N3CCO[C@H](C)C3)nc2n1Cc1cccc(Cl)c1Cl [UNC10225190A]	6.05	6.51	96.99	93.26	79.35	111.47				
FC(F)(F)c1cc(Br)cc(Nc2nccc(-c3cnn4ncccc34)n2)c1 [UNC10225191A]	6.52	14.10	110.85	116.61	83.14	72.92				
FC(F)(F)c1cc(Nc2nccc(-c3c(-c4ccc(Cl)cc4)nn4ncccc34)n2)ccc1Cl [UNC10225192A]	6.87	11.31	96.76	105.34	128.18	86.86				
CCOc1nccc(-c2c(-c3ccc(F)cc3)ncn2C2CCNCC2)n1 [UNC10225194A]	5.88	13.41	81.72	85.28	122.01	127.90				
Cc1c(Cn2c3ccccc3n3c(=O)cc(N4CCOCC4)nc23)cccc1C(F)(F)F [UNC10225195A]	7.03	10.62	86.55	100.26	76.50	108.51				
NCC(NC(=O)c1cc(-c2cn[nH]c2)c(-c2ccnc3[nH]ccc23)s1)c1ccccc1.O=C(O)C(F)(F)F.O=C(O)C(F)(F)F (stereo not drawn) [UNC10225196A]	5.85	18.18			105.21	81.98	69.88	101.21		
COc1cccc(NC(=O)Nc2ccc(C)c(-c3ccc(C(=O)Nc4ccncc4)cc3)c2)c1 [UNC10225200A]	7.95	12.37	99.65	116.14	112.40	79.81				
Nc1nc(-c2ccccn2)c(-c2ccnc3ccccc23)s1 [UNC10225201A]	4.25	10.28			81.66	144.30	97.54	92.32		
Nc1ncnc2c1ncn2-c1ccc(Cl)cc1 [UNC10225203A]	5.10	14.23	65.28	88.83	145.27	80.96				
CCn1c(-c2ccncc2)nc2cnccc21 [UNC10225204A]	11.18	12.32	98.92	103.23	74.70	104.87				
CCc1nc(-c2cccc(N(C)S(=O)(=O)c3ccccc3)c2)c(-c2ccnc(Nc3ccc(N4CCN(C(C)=O)CC4)nc3)n2)s1 [UNC10225205A]	7.99	16.25	90.69	101.49	111.97	89.51				
CCn1c(-c2nonc2N)nc2cncc(CNC3CCNCC3)c21.Cl [UNC10225211A]	4.17	12.65	95.76	101.16	88.65	84.35				
CN1C(=O)C(Nc2cc(Cl)c(O)c(Cl)c2)=C(c2ccc(Cl)cc2)C1=O [UNC10225212A]	3.71	7.81			103.32	107.72	96.22	97.02		
COc1nccc(-c2c(-c3ccc(F)cc3)ncn2CCCN2CCOCC2)n1 [UNC10225213A]	5.79	16.14	119.56	105.70	78.43	107.77				
Cc1occc1-c1nc(N)c(OC[C@@H](N)Cc2c[nH]c3ccccc23)cc1-c1cc2c(C)n[nH]c2cn1 [UNC10225217A]	6.02	15.99	96.09	101.21	91.49	82.67				
Fc1cc(Cl)ccc1Nc1ccnc2cc(-c3ccc(CN4CCCCC4)o3)ccc12 [UNC10225220A]	3.77	18.00			82.41	76.92	113.72	129.26		

SMILES	TFEB % [1] [%]	TFE3 % [2] [%]	DQ Intensity ([3]; PKIS2 primary screening)	DQ Spot ([3]; PKIS2 primary screening)	AK [4]	Nuclear Count [5]	DQ Intensity [3, 6]	DQ Spot [3, 7]	DQ Intensity [3]	DQ Spot [3]
Cc1ccc2c(-c3ccnc(Nc4ccc(C(F)(F)F)cc4)n3)cnn2n1 [UNC10225224A]	10.89	15.88	85.12	93.95	79.85	89.44				
Cc1c(Cn2c(C)c(C)n3c(=O)cc(N4CCOCC4)nc23)cccc1C(F)(F)F [UNC10225225A]	3.43	8.46	84.00	96.71	106.72	111.32				
CN(C)CCOc1ccc(-c2cc(-c3c[nH]nc3-c3ccccn3)ccn2)cc1 [UNC10225226A]	11.71	7.10			93.65	49.06	136.49	114.20		
Cc1ccc(C)c(NC(=O)Nc2ccc(C)c(-c3ccc(C(=O)Nc4ccncc4)cc3)c2)c1 [UNC10225228A]	7.17	10.54	84.26	79.30	74.48	105.64				
COCCNC(=O)c1ccc(-c2cc(C(=O)NC3CC3)cc(F)c2C)cc1 [UNC10225229A]	15.26	7.62	100.76	101.89	73.51	111.58				
O=C(c1ccc(-c2cc(-c3c[nH]nc3-c3ccccn3)ccn2)cc1)N1CCCC1 [UNC10225230A]	9.58	11.53			75.56	86.33	81.19	99.92		
O=c1cc(N2CCOCC2)nc2n(Cc3ccccc3F)ccn12 [UNC10225231A]	4.37	8.12	110.36	111.39	121.63	97.25				
O=C(Nc1cccc(-c2nn3ncccc3c2-c2ccnc(Nc3ccccc3)n2)c1)c1c(F)cccc1F [UNC10225232A]	3.87	11.89	89.13	101.26	143.10	127.09				
COc1cc2nccc(Nc3ccc(OCc4ccc(NC(C)=O)cc4)cc3)c2cc1OC.Cl [UNC10225233A]	5.84	18.79			100.23	125.55	120.40	99.45		
C[C@@H](Oc1cc(-n2cnc3cc(-c4ccnc(NCCS(C)(=O)=O)c4)ccc32)sc1C(N)=O)c1ccccc1Cl [UNC10225234A]	11.46	12.54	121.28	93.41	97.61	68.66				
FC(F)(F)c1ccc(-c2cc(-c3c[nH]nc3-c3ccccn3)ccn2)cc1 [UNC10225241A]	3.57	6.11			109.99	106.44	101.49	108.48		
Cc1ccccc1-c1cc(-c2c[nH]nc2-c2ccccn2)ccn1 [UNC10225243A]	4.36	14.74			94.72	90.96	62.92	82.05		
CC(=O)c1c(-c2ccncc2)[nH]c(-c2ccncc2)c1C [UNC10225248A]	5.93	12.82	75.03	97.66	107.07	71.54				
Fc1ccc(-c2nn3c(OCC(F)(F)F)cccc3c2-c2ccncc2)cc1 [UNC10225249A]	6.54	7.21			70.84	84.48	115.73	116.42		
COc1cc2c(Nc3ccc(NC(=O)c4ccccc4)cc3)ncnc2cc1OCCCN1CCOCC1 [UNC10225250A]	4.27	6.21			83.23	140.08			81.48	82.98
Cl.c1ccc(-c2n[nH]cc2-c2ccnc(-c3ccc(CN4CCOCC4)cc3)c2)nc1 [UNC10225251A]	7.11	7.21			76.02	93.63	80.00	92.60		
Cc1ccccc1CC(=O)N1CCc2cc(-c3cn(C)c4ncnc(N)c34)ccc21 [UNC10225254A]	10.80	19.37	93.20	89.69	77.66	109.34				
